The results in this text go back to patent US20250388575A1, “HETEROBIFUNCTIONAL COMPOUNDS AND METHODS OF TREATING DISEASE” (Halda Therapeutics OpCo, Inc., priority 2022, published 2025).

Test [1] has as its system T-Rex 293 cell line SC3 cells having increased expression of androgen receptor protein. The experiment in a line: Cellular growth inhibition, T-Rex 293 SC3 cells with increased androgen receptor expression (doxycycline), CellTiter-Glo. Format: cell-based. Particulars: T-Rex 293 SC3 cells with increased androgen receptor expression (exposed to 10 ng/mL doxycycline), 72 hours, CellTiter-Glo; read-out: GI50. Summed up:
(§1)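 SC3, a T-Rex 293 clone with doxycycline-inducible wild-type androgen receptor, was seeded in phenol red-free DMEM with 10% charcoal-dextran FBS, with or without 10 ng/mL doxycycline. Compound added at 24 h (0.5% DMSO) for 72 h at 37° C. CellTiter-Glo 2.0 luminescence; GI50 from four-parameter fit.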
A general note: ATP-based viability assays read luminescence as a measure of living cells.

The test system of test [2] is T-Rex 293 cell line SC3 cells lacking increased expression of androgen receptor protein. The experiment in a line: Cellular growth inhibition, T-Rex 293 SC3 cells lacking increased androgen receptor expression (no doxycycline), CellTiter-Glo. Type of test: cell-based. As to conditions: T-Rex 293 SC3 cells lacking increased androgen receptor expression (not exposed to doxycycline), 72 hours, CellTiter-Glo; read-out: GI50. Summed up: as §1

The test system of the next test is VCaP cells. The experiment in a line: Cellular growth inhibition assay for VCaP cells, CellTiter-Glo. Format: cell-based, human. Particulars: VCaP cells, 72 hours, CellTiter-Glo, read-out: GI50. The method in brief:
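GI50 values come from four-parameter curve fits of luminescence data normalized to a zero baseline. Compound, in medium with 0.5% DMSO, was added one day after plating and left for 72 h before CellTiter-Glo 2.0 addition.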

The next test relates to T47D cells. The experiment in a line: Cellular growth inhibition assay for T47D cells, CellTiter-Glo. Particulars: 72 hours treatment, CellTiter-Glo 2.0. Format: cell-based, human. The protocol: T47D cells were purchased from American Type Cell Culture (ATCC Cat #HTB-133) and then seeded on poly-D-lysine coated, black clear-bottom 384-well plates at 3000/well in 25 μL Dulbecco's Modified Eagle Medium (DMEM) supplemented with 10% w/w Fetal bovine serum (FBS), 0.2 units/mL recombinant human insulin (Gibco Cat #12585014), and 1% w/w Pen-Strep. Pen-Strep is a commercially available mixture of penicillin G and streptomycin, which is used in mammalian cell culture media to prevent bacterial contamination. Dulbecco's Modified Eagle Medium (DMEM) supplemented with 10% w/w fetal bovine serum (FBS), 0.2 units/mL recombinant human insulin, and 1% w/w Pen-Strep is herein referred to as Treatment Medium. Following seeding of cells in the plates, the plates were spun at 300×g for 30 seconds, then equilibrated to room temperature for 30 minutes, and then deposited in a humidified tissue culture incubator maintained at 37° C. with 5% CO2.
At 24 hours after seeding of the cells, dilutions of test compound were prepared in DMSO and dissolved in Treatment Medium, to achieve a final DMSO concentration of 0.5% w/w, thereby providing the Test Compound Solution. A 25 μL aliquot of the Test Compound Solution was added to cells in the well plates. An equal volume of a solution containing DMSO and Treatment Medium was used as a negative control. Following treatment of cells with Test Compound Solution or said equal volume of a solution containing DMSO and Treatment Medium, the plates were spun at 300×g for 30 seconds, and then left in an incubator for 72 hours.
At the end of the treatment duration, cell viability was quantified with CellTiter-Glo 2.0 reagent (Promega Cat #G9243). For this purpose, plates were equilibrated to room temperature for 30 minutes, and then 25 μL of CellTiter-Glo 2.0 reagent was added to cells in the plate wells. Plates were then agitated on a shaker for two minutes at 500 rpm and subsequently incubated at room temperature for 10 minutes. Following incubation, the plates were spun at 3000×g for 30 seconds, then sealed with an optical adhesive cover, and luminescence readings were measured with an EnVision Plate Reader (Perkin Elmer).
Data was normalized using zero luminescence for baseline. A four-parameter non-linear regression curve fit was applied to dose-response data in GraphPad Prism data analysis software to determine the half-maximal growth inhibitory concentration (GI50) for each test compound.

Where two headings read alike, the source gives them in different places.

The term GI50 denotes the concentration giving 50% growth inhibition. Take `CCS(=O)(=O)c1ccc(Oc2ccc(CCCC3C4CN(c5ccc(C(=O)N[C@H]6CC[C@H](Oc7ccc(C#N)c(Cl)c7)CC6)nn5)CC34)cc2)c(-c2cn(C)c(=O)c3[nH]ccc23)c1` (stereo partly drawn) [I-71]: the GI50 (in test [1]; in test [2]; in the test on VCaP cells (Homo sapiens); in the test on T47D cells (Homo sapiens)) was below 500 nM in each case.
For `CCC1CN(c2ccc(C(=O)N[C@H]3CC[C@H](Oc4ccc(C#N)c(Cl)c4)CC3)nn2)CC1c1ccc(Oc2ccc(S(=O)(=O)CC)cc2-c2cn(C)c(=O)c3[nH]ccc23)cc1` (stereo partly drawn) [I-89], the GI50 in test [1] is below 500 nM; in test [2] it was above 3000 nM; in the test on VCaP cells, below 500 nM; in the test with T47D cells, below 500 nM.
For the molecule `Cn1cc(-c2cc(C3CCS(=O)(=O)CC3)ccc2Oc2ccc(CCC3CCN(c4ccc(C(=O)NC5CCC(Oc6ccc(C#N)c(Cl)c6)CC5)nn4)CC3)cc2)c2cc[nH]c2c1=O` (stereo not drawn) [I-250, N-[4-(3-chloro-4-cyano-phenoxy)cyclohexyl]-6-[4-[2-[4-[4-(1,1-dioxothian-4-yl)-2-(6-methyl-7-oxo-1H-pyrrolo[2,3-c]pyridin-4-yl)phenoxy]phenyl]ethyl]-1-piperidyl]pyridazine-3-carboxamide], the GI50 in test [1] was below 500 nM; in test [2], below 500 nM; with VCaP cells (Homo sapiens), 500 to 1500 nM; in the test on T47D cells (Homo sapiens) it was 500 to 1500 nM.
For `Cn1cc(-c2cc(N3CCCS3(=O)=O)ccc2Oc2ccc(CCC3CCN(c4ccc(C(=O)NC5CCC(Oc6ccc(C#N)c(Cl)c6)CC5)nn4)CC3)cc2)c2cc[nH]c2c1=O` (stereo not drawn) [I-239, N-[4-(3-chloro-4-cyano-phenoxy)cyclohexyl]-6-[4-[2-[4-[4-(1,1-dioxo-1,2-thiazolidin-2-yl)-2-(6-methyl-7-oxo-1H-pyrrolo[2,3-c]pyridin-4-yl)phenoxy]phenyl]ethyl]-1-piperidyl]pyridazine-3-carboxamide], the GI50 (in test [1]; in test [2]; with VCaP cells (Homo sapiens); with T47D cells (Homo sapiens)) was below 500 nM in each case.
For `CCS(=O)(=O)c1ccc(Oc2ccc(OCC3CCN(c4ccc(C(=O)N[C@H]5CC[C@H](Oc6ccc(C#N)c(Cl)c6)CC5)nn4)CC3)cc2F)c(-c2cn(C)c(=O)c3[nH]ccc23)c1` [I-43], the GI50 (in test [1]; in test [2]; in the test on VCaP cells; in the test with T47D cells) was below 500 nM throughout.
Consider `CCS(=O)(=O)c1ccc(Oc2ccc(OC3CC4(C3)CN(c3ccc(C(=O)N[C@H]5CC[C@H](Oc6ccc(C#N)c(Cl)c6)CC5)nn3)C4)c(F)c2)c(-c2cn(C)c(=O)c3[nH]ccc23)c1` [I-44], for which the GI50 (in test [1]; in test [2]; in the test with VCaP cells (Homo sapiens); with T47D cells (Homo sapiens)) was below 500 nM in each case.
`CN(C1CCN(c2ccc(C(=O)N[C@H]3CC[C@H](Oc4ccc(C#N)c(Cl)c4)CC3)nn2)CC1)C1CN(c2cccc(Oc3ccc(C(C)(C)O)cc3-c3cn(C)c(=O)c4[nH]ccc34)c2F)C1` [I-142]: the GI50 (in test [1]; in test [2]; with VCaP cells (Homo sapiens); in the test with T47D cells (Homo sapiens)) was below 500 nM each time.
For `Cn1cc(-c2cc(C(C)(C)O)ccc2Oc2ccc(CCC3CN(c4ccc(C(=O)N[C@H]5CC[C@H](Oc6ccc(C#N)c(Cl)c6)CC5)nn4)C3)cc2)c2cc[nH]c2c1=O` [I-129], the GI50 (in test [1]; in test [2]; in the test with VCaP cells; in the test on T47D cells) was below 500 nM each time.
In the case of `CN(C1CN(c2ccc(Oc3ccc(C(C)(C)O)cc3-c3cn(C)c(=O)c4[nH]ccc34)cc2)C1)C1CN(c2ccc(C(=O)N[C@H]3CC[C@H](Oc4ccc(C#N)c(Cl)c4)CC3)nn2)C1` [I-143], the GI50 in test [1] is below 500 nM; in test [2] it was above 3000 nM; in the test on VCaP cells it was below 500 nM; in the test on T47D cells it was below 500 nM.
Regarding `CN(C1CCN(c2ccc(C(=O)N[C@H]3CC[C@H](Oc4ccc(C#N)c(Cl)c4)CC3)nn2)CC1)C1CN(c2ccc(Oc3ccc(C(C)(C)O)cc3-c3cn(C)c(=O)c4[nH]ccc34)cc2)C1` [I-140], the GI50 (in test [1]; in test [2]; in the test with VCaP cells (Homo sapiens); in the test with T47D cells (Homo sapiens)) was below 500 nM each time.
On to `CCS(=O)(=O)c1ccc(Oc2ccc(C3CC4(CCN(c5ccc(C(=O)N[C@H]6CC[C@H](Oc7ccc(C#N)c(Cl)c7)CC6)nn5)CC4)C3)cc2)c(-c2cn(C)c(=O)c3[nH]ccc23)c1` [I-60], for which the GI50 (in test [1]; in test [2]; with VCaP cells; in the test on T47D cells) was below 500 nM each time.
For `Cn1cc(-c2cc(C(C)(C)O)ccc2Oc2cc(F)c(CCC3CCN(c4ccc(C(=O)N[C@H]5CC[C@H](Oc6ccc(C#N)c(Cl)c6)CC5)nn4)CC3)cc2F)c2cc[nH]c2c1=O` [I-116], the GI50 in test [1] was below 500 nM; in test [2], 500 to 1500 nM; in the test on VCaP cells, below 500 nM; in the test with T47D cells, below 500 nM.
`Cn1cc(-c2cc(C(C)(C)O)ccc2Oc2ccc(CCC3CCN(c4ccc(C(=O)N[C@H]5CC[C@H](Oc6ccc(C#N)c(Cl)c6)CC5)nn4)CC3)c(F)c2)c2cc[nH]c2c1=O` [I-113]: the GI50 in test [1] is below 500 nM; in test [2], above 3000 nM; in the test with VCaP cells, below 500 nM; with T47D cells it was 500 to 1500 nM.
For the molecule `CCS(=O)(=O)Cc1ccc(OC2CC(OCC3CCN(c4ccc(C(=O)NC5CCC(Oc6ccc(C#N)c(Cl)c6)CC5)nn4)CC3)C2)c(-c2cn(C)c(=O)c3[nH]ccc23)c1` (stereo not drawn) [I-240, N-((1r,4r)-4-(3-chloro-4-cyanophenoxy)cyclohexyl)-6-(4-(((1r,3r)-3-(4-((ethylsulfonyl)methyl)-2-(6-methyl-7-oxo-6,7-dihydro-1H-pyrrolo[2,3-c]pyridin-4-yl)phenoxy)cyclobutoxy)methyl)piperidin-1-yl)pyridazine-3-carboxamide], the 50% growth inhibitory concentration (GI50) (in test [1]; in test [2]; in the test on VCaP cells; with T47D cells) was below 500 nM throughout.
For the molecule `CCS(=O)(=O)c1ccc(Oc2ccc(CCC3CCN(c4ccc(C(=O)N[C@H]5CC[C@H](Oc6ccc(C#N)c(Cl)c6)CC5)nn4)CC3)c(C#N)c2)c(-c2cn(C)c(=O)c3[nH]ccc23)c1` [I-79], the GI50 in test [1] is below 500 nM; in test [2], above 3000 nM; in the test with VCaP cells, below 500 nM; with T47D cells, 500 to 1500 nM.
With `CCS(=O)(=O)c1ccc(Oc2ccc(CCC3CC4(C3)CN(c3ccc(C(=O)N[C@H]5CC[C@H](Oc6ccc(C#N)c(Cl)c6)CC5)nn3)C4)cc2)c(-c2cn(C)c(=O)c3[nH]ccc23)c1` [I-67], the GI50 (in test [1]; in test [2]; in the test on VCaP cells; in the test on T47D cells) was below 500 nM in each case.
As to `Cn1cc(-c2cc(C3CCCS3(=O)=O)ccc2Oc2ccc(CCC3CCN(c4ccc(C(=O)NC5CCC(Oc6ccc(C#N)c(Cl)c6)CC5)nn4)CC3)cc2)c2cc[nH]c2c1=O` (stereo not drawn) [I-252, N-[4-(3-chloro-4-cyano-phenoxy)cyclohexyl]-6-[4-[2-[4-[4-(1,1-dioxothiolan-2-yl)-2-(6-methyl-7-oxo-1Hpyrrolo[2,3-c]pyridin-4-yl)phenoxy]phenyl]ethyl]-1-piperidyl]pyridazine-3-carboxamide], the GI50 in test [1] is below 500 nM; in test [2] it was above 3000 nM; in the test with VCaP cells (Homo sapiens), below 500 nM; in the test on T47D cells (Homo sapiens) it was 500 to 1500 nM.
With `Cn1cc(-c2cc(C(C)(C)O)ccc2Oc2ccc(CCCCC3CN(c4ccc(C(=O)N[C@H]5CC[C@H](Oc6ccc(C#N)c(Cl)c6)CC5)nn4)C3)cc2)c2cc[nH]c2c1=O` [I-133], the GI50 in test [1] is below 500 nM; in test [2], 500 to 1500 nM; in the test with VCaP cells, below 500 nM; in the test with T47D cells, below 500 nM.
